# Results from US20240172750A1, “5-Fluoro-4-Imino-3-Methyl-1-Tosyl-3,4-Dihydropyrimidin-2(1H)-One for Controlling Plant Diseases” (Adama Makhteshim Ltd., priority 2021, published 2024).
# Experiments:
# [1] = tested on: Erysiphe betae (powdery mildew); assay: Greenhouse screening test, powdery mildew in sugar beet; assay type: in vivo; conditions: starting from 100 g ai/ha, applied one day after inoculation
# Method: The screening test was conducted in a greenhouse in Gerichshain, Kupferstraße 6, Germany. The test was performed from application until 28 days after treatment. The efficacy and phytotoxic symptoms of compound of formula I to the plant species sugar beet were examined with a water control under greenhouse conditions. During the whole trial period the plants were stored at 12.6° C.-24.2° C. and 41.9-78.2% relative humidity.
# The inoculation of the leaves was carried out. A spore suspension was produced. Infested leaves of sugar beets from a field were put in water for some minutes to get a spore suspension. For better homogeneity Tween 20 (Polysorbat) was added to the spore solution (0.1%). Two diseases were observed on the sampled leaves, Uromyces betae and Erysiphe betae, just E. betae infested the plants in this screening trial. […]
# The application was carried out once one day after inoculation in an automatic application cabin at a spray volume equivalent to 200 L/ha. During the observation period of 28 days after treatment (DAT), the plants were assessed weekly for growth stage, leaf diseases and phytotoxicity. […]
# [2] = tested on: Colletotrichum dematium var. truncatum; assay: Pot trial, Colletotrichum dematium var. truncatum on soybean; assay type: in vivo; conditions: 50-200 g ai/ha
# Method: (§2) The inoculation of Corynespora cassiicola and Colletotrichum dematium var. truncatum is done with infected leaves from the field few days after the application.
# (§3) To test for fungicidal control against the two necrotrophic diseases, the soybean plants, grown in pots, are sprayed at V2 with each of the above treatments. 5 pots with 3 soybean plants each are considered, each treatment counts for 4 replicates.
# (§4) Between 14 and 21 days from the inoculation the severity (%) of the infection is assessed.
# [3] = tested on: Phytophtora infestans; assay type: in vivo; conditions: potato; 150 g ai/ha vs CUPRIZOL S 330 g ai/ha
# [4] = tested on: Bobwhite quail; assay: Ecotoxicity: birds, reproduction; assay type: in vivo
# Source text: (§1) The ecotoxicity of flumetylsulforim was investigated in numerous studies in accordance with the strict requirements for the approval of active substances in the EU.
# [5] = tested on: Rabbit; assay: Ecotoxicity: mammals, long-term; assay type: in vivo
# Source text: as §1
# [6] = Ecotoxicity: fish, acute; conditions: in vivo, Rainbow trout
# Source text: as §1
# [7] = Ecotoxicity: aquatic invertebrates, acute; assay type: in vivo; conditions: in vivo, Daphnia magna
# Source text: as §1
# [8] = tested on: Daphnia magna; assay: Ecotoxicity: aquatic invertebrates, acute; assay type: in vivo; conditions: wheats and barley at 2 × 100 g/ha
# Source text: as §1
# [9] = tested on: Daphnia magna; assay: Ecotoxicity: aquatic invertebrates, long-term; assay type: in vivo
# Source text: as §1
# [10] = Ecotoxicity: algae, long-term; assay type: in vivo; conditions: in vivo, Green alga
# Source text: as §1
# [11] = tested on: Green alga; assay: Ecotoxicity: algae, long-term; assay type: in vivo; conditions: wheats and barley at 2 × 100 g/ha
# Source text: as §1
# [12] = tested on: Honeybee; assay: Ecotoxicity: honeybee, acute oral; assay type: in vivo
# Source text: as §1
# [13] = tested on: Honeybee; assay: Ecotoxicity: honeybee, acute contact; assay type: in vivo
# Source text: as §1
# [14] = tested on: Soil microbial activity (Nitrogen activity); assay: Ecotoxicity: soil microbial activity, long-term
# Source text: as §1
# [15] = tested on: Carrot; assay: Non-target terrestrial plants, seedling emergence; assay type: in vivo
# Source text: as §1
# [16] = tested on: Common oat; assay: Non-target terrestrial plants, seedling emergence; assay type: in vivo
# Source text: as §1
# [17] = tested on: Cucumber; assay: Non-target terrestrial plants, seedling emergence; assay type: in vivo
# Source text: as §1
# [18] = tested on: Maize; assay: Non-target terrestrial plants, seedling emergence; assay type: in vivo
# Source text: as §1
# [19] = tested on: Oil seed rape; assay: Non-target terrestrial plants, seedling emergence; assay type: in vivo
# Source text: as §1
# [20] = tested on: Onion; assay: Non-target terrestrial plants, seedling emergence; assay type: in vivo
# Source text: as §1
# [21] = tested on: Ryegrass; assay: Non-target terrestrial plants, seedling emergence; assay type: in vivo
# Source text: as §1
# [22] = tested on: Soybean; assay: Non-target terrestrial plants, seedling emergence; assay type: in vivo
# Source text: as §1
# [23] = tested on: Sugar beet; assay: Non-target terrestrial plants, seedling emergence; assay type: in vivo
# Source text: as §1
# [24] = tested on: Sunflower; assay: Non-target terrestrial plants, seedling emergence; assay type: in vivo
# Source text: as §1
# [25] = tested on: Microsphaera diffusa (powdery mildew)
# Method: Microsphaera diffusa (powdery mildew) is artificially inoculated by spraying the inoculum on the leaves few days after the application.
# To test for fungicidal control of Microsphaera diffusa (powdery mildew), the soybean plants, grown in pots, are sprayed at V2 with each of the above treatments. 5 pots with 3 soybean plants each are considered, each treatment counts for 4 replicates.
# Between 14 and 21 days from the inoculation, the severity (%) of the infection is assessed.
# [26] = tested on: Ramularia areola
# Method: The objective of the trial is to assess the fungicidal effect of ADF-16 against Ramularia areola on cotton, compared to an untreated control and a reference product.
# ADF-16 is tested at different doses, namely at 50, 100, 150 and 200 g ai/ha as depicted in the table below.
# Ramularia areola is artificially inoculated by spraying the conidia on the plants, previously sprayed with the fungicide.
# To test for fungicidal control of Ramularia areola, the cotton plants, grown in pots, are sprayed at first true leaf fully open with each of the above treatments. 5 pots with 3 cotton plants each are considered, each treatment counts for 4 replicates.
# Between 25 and 30 days from the inoculation the severity (%) of the infection is assessed.
# [27] = tested on: Corynespora cassiicola
# Method: as §2, §3, §4
# [28] = tested on: Cercospora kikushi
# Method: The trial is carried out in open field and no artificial inoculation is performed.
# To test for fungicidal control against the late season disease, each plot (3 m×5 m) is sprayed with one of the treatments from Table 17. Each treatment is made of 4 replicates.
# Three applications are made, the first approximately 14 days before flowering followed by a second one at R1 and the third at R1+14 days. A fourth application is considered based on the development of the disease.
# Assessments are done before all sprays and at 7, 14 and 21 days after the last spray. The whole plot is assessed considering the 3 plant parts (bottom, mid and upper). The final grade is the mean of the 3 scores (bottom, mid and upper).
# The whole plot is assessed for defoliation. The defoliation assessment takes place at R6-R7 stage when the untreated control reaches 80 to 90% defoliation. The harvest assessment is done from the middle of the plot covering at least 8 m 2/plot.
# [29] = wheats and barley at 2 × 100 g/ha
structure (smiles),measurement,setting,value
"Cc1ccc(S(=O)(=O)n2cc(F)c(=N)n(C)c2=O)cc1 [compound of formula I, 5-fluoro-4-imino-3-methyl-1-tosyl-3,4-dihydropyrimidin-2(1H)-one]",reduction of the affected leaf area compared to the UTC,[1],> 60%
same,control of Colletotrichum dematium var. truncatum,[2],effectively controls
same,control versus reference treatment,[3],significant better control than the reference treatment
same,NOED,[4],NOED > 67.8 mg/kg bw/d
same,Risk at current use pattern,[4]; [29],Acceptable
same,NOED,[5],NOED = 15 mg/kg bw/d
same,Risk at current use pattern,[5]; [29],Acceptable
same,LC50,[6],5.41 µg/mL
same,EC50,[7],> 10 µg/mL
same,Risk at current use pattern,[8],Acceptable
same,NOEC,[9],NOEC = 0.32 mg/L
same,Risk at current use pattern,[9]; [29],Acceptable
same,EC50,[10],> 10 µg/mL
same,Risk at current use pattern,[11],Acceptable
same,LD50,[12],LD50 > 3.727 μg/bee
same,LD50,[13],LD50 > 50 μg/bee
same,Ecotoxicity endpoint (nitrogen activity),[14]; soil microbial activity,>10.3 mg/kg dws
same,Risk at current use pattern,"[14]; soil microbial nitrogen activity, wheats and barley at 2 × 100 g/ha",Acceptable
same,ER50,[15],ER50 > 189 g/ha
same,Risk at current use pattern,[15]; [29],Acceptable
same,ER50,[16],ER50 > 189 g/ha
same,Risk at current use pattern,[16]; [29],Acceptable
same,ER50,[17],ER50 > 189 g/ha
same,Risk at current use pattern,[17]; [29],Acceptable
same,ER50,[18],ER50 > 189 g/ha
same,Risk at current use pattern,[18]; [29],Acceptable
same,ER50,[19],ER50 > 189 g/ha
same,Risk at current use pattern,[19]; [29],Acceptable
same,ER50,[20],ER50 > 189 g/ha
same,Risk at current use pattern,[20]; [29],Acceptable
same,ER50,[21],ER50 > 189 g/ha
same,Risk at current use pattern,[21]; [29],Acceptable
same,ER50,[22],ER50 > 189 g/ha
same,Risk at current use pattern,[22]; [29],Acceptable
same,ER50,[23],ER50 > 189 g/ha
same,Risk at current use pattern,[23]; [29],Acceptable
same,ER50,[24],ER50 > 189 g/ha
same,Risk at current use pattern,[24]; [29],Acceptable
same,phytotoxicity,[25]; in vivo,no significant phytotoxicity
same,control of Microsphaera diffusa,"[25]; soybean, 50-200 g ai/ha",effectively controls
same,control of Ramularia areola,"[26]; cotton, 50-200 g ai/ha",effectively controls
same,phytotoxicity,[26]; in vivo,no significant phytotoxicity
same,phytotoxicity,[27]; in vivo,no significant phytotoxicity
same,control of Corynespora cassiicola,"[27]; soybean, 50-200 g ai/ha",effectively controls
same,phytotoxicity,[28]; in vivo,no significant phytotoxicity
same,control of Cercospora kikushi,"[28]; soybean, 50, 100 and 200 g ai/ha",effectively controls
